Assay results: patent US20240218022A1, “ANTI-VISTA MACROCYCLIC PEPTIDES AND COMPOSITIONS” (BRISTOL-MYERS SQUIBB COMPANY, priority 2022, published 2024)
Where two headings read alike, the source gives them in different places. Positions of bridges follow the written chain, without caps; N, C: chain ends. Non-standard residues stand in square brackets, D forms with d. Residues, ends and D or L forms follow the SMILES beside them. Cit = NC(=O)NCCC[C@H](N)C(=O)O; Ahp(2) = CCCCC[C@H](N)C(=O)O; NMeNle = CCCC[C@H](NC)C(=O)O; NHexGly = CCCCCCNCC(=O)O; Nle = CCCC[C@H](N)C(=O)O; Nva = CCC[C@H](N)C(=O)O; Abu = CC[C@H](N)C(=O)O

Biological target: T1, mouse VISTA (mVISTA) (Mus musculus, UniProt Q9D659)
T1 construct: expressed in transfected cells; host or cells: Human embryonic kidney 293T cells
T1 sequence (Q9D659 33-308): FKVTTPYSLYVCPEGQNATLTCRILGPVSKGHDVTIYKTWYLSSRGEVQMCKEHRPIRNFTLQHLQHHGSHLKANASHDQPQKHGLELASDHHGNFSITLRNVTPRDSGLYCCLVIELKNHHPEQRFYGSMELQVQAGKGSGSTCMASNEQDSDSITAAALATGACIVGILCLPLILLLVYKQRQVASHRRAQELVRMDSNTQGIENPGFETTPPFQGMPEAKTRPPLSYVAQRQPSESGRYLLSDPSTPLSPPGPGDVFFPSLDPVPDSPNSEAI
Assay: Cell-Based Binding High-Content Assay For mVISTA (HC CBA mVISTA)
Conditions: 293T cells expressing mouse VISTA, competition with biotinylated peptide (2 nM)
Method in brief: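 Read-out: Alexa 647–streptavidin signal imaged on fixed, Hoechst-stained mVISTA-293T cells, with IC50 taken from a four-parameter logistic curve. Compounds competed with 2 nM biotinylated peptide for 30 min at room temperature, tested under both no-wash and wash (1 h compound, media exchange, 1 h) formats.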

| IC50 (read-out: HC CBA mVISTA IC50) [nM] | IC50 (read-out: CBA mVISTA IC50) [nM] | Compound |
| --- | --- | --- |
| 48.3 | – | CCCCCCN1CC(=O)N[C@@H](Cc2ccc(O)cc2)C(=O)N[C@@H](CCCNC(=N)N)C(=O)N[C@@H](CC(N)=O)C(=O)N[C@@H](CCCNC(=N)N)C(=O)N[C@@H](CC(C)C)C(=O)N[C@@H](CCCCC)C(=O)N2CCC[C@H]2C(=O)N[C@@H](C(C)C)C(=O)N[C@@H](Cc2c[nH]c3ccccc23)C(=O)N[C@H](C(=O)NCC(=O)O)CSCC(=O)N[C@@H](Cc2ccccc2)C(=O)N[C@@H](Cc2ccc(O)cc2)C(=O)N[C@@H](CC(=O)O)C1=O [Example 1069] ({CH2CO}-FYD[NHexGly]YRNRL[Ahp(2)]PVWCG-OH; thioether N-14) |
| 18.1 | – | CCCCCCN1CC(=O)N[C@@H](Cc2ccc(O)cc2)C(=O)N[C@@H](CCCC)C(=O)NCC(=O)N[C@@H](CCCNC(=N)N)C(=O)N[C@@H](CC(C)C)C(=O)N[C@@H](CCCCC)C(=O)N2CCC[C@H]2C(=O)N[C@@H](C(C)C)C(=O)N[C@@H](Cc2ccc(O)cc2)C(=O)N[C@H](C(=O)NCC(=O)O)CSCC(=O)N[C@@H](Cc2ccccc2)C(=O)N[C@@H](Cc2ccc(O)cc2)C(=O)N[C@@H](CC(=O)O)C1=O [Example 1070] ({CH2CO}-FYD[NHexGly]Y[Nle]GRL[Ahp(2)]PVYCG-OH; thioether N-14) |
| 17.7 | – | CCCCCCN1CC(=O)N[C@@H](Cc2ccc(O)cc2)C(=O)N[C@@H](CCCC)C(=O)N[C@@H](CC(=O)O)C(=O)N[C@@H](CCCNC(=N)N)C(=O)N[C@@H](CC(C)C)C(=O)N[C@@H](CCCCC)C(=O)N2CCC[C@H]2C(=O)N[C@@H](C(C)C)C(=O)N[C@@H](Cc2ccc(O)cc2)C(=O)N[C@H](C(=O)NCC(=O)O)CSCC(=O)N[C@@H](Cc2ccccc2)C(=O)N[C@@H](Cc2ccc(O)cc2)C(=O)N[C@@H](CC(=O)O)C1=O [Example 1071] ({CH2CO}-FYD[NHexGly]Y[Nle]DRL[Ahp(2)]PVYCG-OH; thioether N-14) |
| 5.8 | – | CCCCCCN1CC(=O)N[C@@H](Cc2ccc(O)cc2)C(=O)N[C@@H](CC(C)C)C(=O)N[C@@H](CC(N)=O)C(=O)N[C@@H](CCCNC(=N)N)C(=O)N[C@@H](CC(C)C)C(=O)N[C@@H](CCCCC)C(=O)N2CCC[C@H]2C(=O)N[C@@H](C(C)C)C(=O)N[C@@H](C(C)C)C(=O)N[C@H](C(=O)N[C@@H](CO)C(=O)O)CSCC(=O)N[C@@H](Cc2ccccc2)C(=O)N[C@@H](Cc2ccc(O)cc2)C(=O)N[C@@H](CC(=O)O)C1=O [Example 1072] ({CH2CO}-FYD[NHexGly]YLNRL[Ahp(2)]PVVCS-OH; thioether N-14) |
| – | 6.6 | CCCCCCN1CC(=O)N[C@@H](Cc2ccc(O)cc2)C(=O)N[C@@H](CCCC)C(=O)N[C@@H](CC(=O)O)C(=O)N[C@@H](CCCNC(=N)N)C(=O)N(C)[C@@H](CCCC)C(=O)N[C@@H](CCCCC)C(=O)N2CCC[C@H]2C(=O)N[C@@H](C(C)C)C(=O)N[C@@H](CC(=O)O)C(=O)N[C@H](C(=O)N[C@@H](CC(=O)O)C(N)=O)CSCC(=O)N[C@@H](Cc2ccccc2)C(=O)N[C@@H](Cc2ccc(O)cc2)C(=O)N[C@@H](CC(=O)O)C1=O [Example 1073] ({CH2CO}-FYD[NHexGly]Y[Nle]DR[NMeNle][Ahp(2)]PVDCD-NH2; thioether N-14) |
| – | 9.7 | CCCCCCN1CC(=O)N[C@@H](Cc2ccc(O)cc2)C(=O)N[C@@H](CCCCC)C(=O)N[C@@H](CC(=O)O)C(=O)N[C@@H](CCCNC(=N)N)C(=O)N(C)[C@@H](CCCC)C(=O)N[C@@H](CCCCC)C(=O)N2CCC[C@H]2C(=O)N[C@@H](C(C)C)C(=O)N[C@@H](CC(=O)O)C(=O)N[C@H](C(=O)N[C@@H](CC(=O)O)C(N)=O)CSCC(=O)N[C@@H](Cc2ccccc2)C(=O)N[C@@H](Cc2ccc(O)cc2)C(=O)N[C@@H](CC(=O)O)C1=O [Example 1074] ({CH2CO}-FYD[NHexGly]Y[Ahp(2)]DR[NMeNle][Ahp(2)]PVDCD-NH2; thioether N-14) |
| – | 19.1 | CCCCCCN1CC(=O)N[C@@H](Cc2ccc(O)cc2)C(=O)N[C@@H](CCCC)C(=O)N[C@@H](CC(=O)O)C(=O)N[C@@H](CCCNC(=N)N)C(=O)N(C)[C@@H](CCCC)C(=O)N[C@@H](CCCCC)C(=O)N2CCC[C@H]2C(=O)N[C@@H](C(C)C)C(=O)N[C@@H](CC(=O)O)C(=O)N[C@H](C(=O)N[C@H](CC(=O)O)C(N)=O)CSCC(=O)N[C@@H](Cc2ccccc2)C(=O)N[C@@H](Cc2ccc(O)cc2)C(=O)N[C@@H](CC(=O)O)C1=O [Example 1075] ({CH2CO}-FYD[NHexGly]Y[Nle]DR[NMeNle][Ahp(2)]PVDC[dD]-NH2; thioether N-14) |

The remaining lines, values behind:

| Compound | IC50 (read-out: HC CBA mVISTA IC50) [nM] | IC50 (read-out: CBA mVISTA IC50) [nM] |
| --- | --- | --- |
| CCCCCCN1CC(=O)N[C@@H](Cc2ccc(O)cc2)C(=O)N[C@@H](CCC)C(=O)NCC(=O)N[C@@H](CCCNC(=N)N)C(=O)N[C@@H](CC(C)C)C(=O)N[C@@H](CCCCC)C(=O)N2CCC[C@H]2C(=O)N[C@@H](C(C)C)C(=O)N[C@@H](CO)C(=O)N[C@H](C(=O)NCC(N)=O)CSCC(=O)N[C@@H](Cc2ccccc2)C(=O)N[C@@H](Cc2ccc(O)cc2)C(=O)N[C@@H](CC(=O)O)C1=O [Example 1060] ({CH2CO}-FYD[NHexGly]Y[Nva]GRL[Ahp(2)]PVSCG-NH2; thioether N-14) | 29.9 | – |
| CCCCCCN1CC(=O)N[C@@H](Cc2ccc(O)cc2)C(=O)N[C@@H](CCC)C(=O)NCC(=O)N[C@@H](CCCNC(=N)N)C(=O)N[C@@H](CC(C)C)C(=O)N[C@@H](CCCCC)C(=O)N2CCC[C@H]2C(=O)N[C@@H](C(C)C)C(=O)N[C@@H](CO)C(=O)N[C@H](C(=O)NCC(=O)O)CSCC(=O)N[C@@H](Cc2ccccc2)C(=O)N[C@@H](Cc2ccc(O)cc2)C(=O)N[C@@H](CC(=O)O)C1=O [Example 1061] ({CH2CO}-FYD[NHexGly]Y[Nva]GRL[Ahp(2)]PVSCG-OH; thioether N-14) | 46.3 | – |
| CCCCCCN1CC(=O)N[C@@H](Cc2ccc(O)cc2)C(=O)N[C@@H](CC)C(=O)NCC(=O)N[C@@H](CCCNC(=N)N)C(=O)N[C@@H](CC(C)C)C(=O)N[C@@H](CCCCC)C(=O)N2CCC[C@H]2C(=O)N[C@@H](C(C)C)C(=O)N[C@@H](CO)C(=O)N[C@H](C(=O)NCC(=O)O)CSCC(=O)N[C@@H](Cc2ccccc2)C(=O)N[C@@H](Cc2ccc(O)cc2)C(=O)N[C@@H](CC(=O)O)C1=O [Example 1062] ({CH2CO}-FYD[NHexGly]Y[Abu]GRL[Ahp(2)]PVSCG-OH; thioether N-14) | 15.2 | – |
| CCCCCCN1CC(=O)N[C@@H](Cc2ccc(O)cc2)C(=O)N[C@@H](C(C)C)C(=O)NCC(=O)N[C@@H](CCCNC(=N)N)C(=O)N[C@@H](CC(C)C)C(=O)N[C@@H](CCCCC)C(=O)N2CCC[C@H]2C(=O)N[C@@H](C(C)C)C(=O)N[C@@H](CO)C(=O)N[C@H](C(=O)NCC(=O)O)CSCC(=O)N[C@@H](Cc2ccccc2)C(=O)N[C@@H](Cc2ccc(O)cc2)C(=O)N[C@@H](CC(=O)O)C1=O [Example 1063] ({CH2CO}-FYD[NHexGly]YVGRL[Ahp(2)]PVSCG-OH; thioether N-14) | 28.6 | – |
| CCCCCCN1CC(=O)N[C@@H](Cc2ccc(O)cc2)C(=O)N[C@@H](CCCCC)C(=O)NCC(=O)N[C@@H](CCCNC(N)=O)C(=O)N[C@@H](CC(C)C)C(=O)N[C@@H](CCCCC)C(=O)N2CCC[C@H]2C(=O)N[C@@H](C(C)C)C(=O)N[C@@H](CO)C(=O)N[C@H](C(=O)NCC(N)=O)CSCC(=O)N[C@@H](Cc2ccccc2)C(=O)N[C@@H](Cc2ccc(O)cc2)C(=O)N[C@@H](CC(=O)O)C1=O [Example 1064] ({CH2CO}-FYD[NHexGly]Y[Ahp(2)]G[Cit]L[Ahp(2)]PVSCG-NH2; thioether N-14) | 9.3 | – |
| CCCCCCN1CC(=O)N[C@@H](Cc2ccc(O)cc2)C(=O)N[C@@H](CCCC)C(=O)N[C@@H](CC(=O)O)C(=O)N[C@@H](CCCNC(=N)N)C(=O)N[C@@H](CC(C)C)C(=O)N[C@@H](CCCCC)C(=O)N2CCC[C@H]2C(=O)N[C@@H](C(C)C)C(=O)N[C@@H](C(C)C)C(=O)N[C@H](C(=O)NCC(=O)O)CSCC(=O)N[C@@H](Cc2ccccc2)C(=O)N[C@@H](Cc2ccc(O)cc2)C(=O)N[C@@H](CC(=O)O)C1=O [Example 1065] ({CH2CO}-FYD[NHexGly]Y[Nle]DRL[Ahp(2)]PVVCG-OH; thioether N-14) | 15.6 | – |
| CCCCCCN1CC(=O)N[C@@H](Cc2ccc(O)cc2)C(=O)N[C@@H](CC(C)C)C(=O)N[C@@H](CC(N)=O)C(=O)N[C@@H](CCCNC(=N)N)C(=O)N[C@@H](CC(C)C)C(=O)N[C@@H](CCCCC)C(=O)N2CCC[C@H]2C(=O)N[C@@H](C(C)C)C(=O)N[C@@H](C(C)C)C(=O)N[C@H](C(=O)NCC(=O)O)CSCC(=O)N[C@@H](Cc2ccccc2)C(=O)N[C@@H](Cc2ccc(O)cc2)C(=O)N[C@@H](CC(=O)O)C1=O [Example 1066] ({CH2CO}-FYD[NHexGly]YLNRL[Ahp(2)]PVVCG-OH; thioether N-14) | 2.4 | – |
| CCCCCCN1CC(=O)N[C@@H](Cc2ccc(O)cc2)C(=O)N[C@@H](CCCC)C(=O)N[C@@H](CC(=O)O)C(=O)N[C@@H](CCCNC(=N)N)C(=O)N[C@@H](CC(C)C)C(=O)N[C@@H](CCCCC)C(=O)N2CCC[C@H]2C(=O)N[C@@H](C(C)C)C(=O)N[C@@H](Cc2c[nH]c3ccccc23)C(=O)N[C@H](C(=O)NCC(=O)O)CSCC(=O)N[C@@H](Cc2ccccc2)C(=O)N[C@@H](Cc2ccc(O)cc2)C(=O)N[C@@H](CC(=O)O)C1=O [Example 1067] ({CH2CO}-FYD[NHexGly]Y[Nle]DRL[Ahp(2)]PVWCG-OH; thioether N-14) | 28.9 | – |
| CCCCCCN1CC(=O)N[C@@H](Cc2ccc(O)cc2)C(=O)N[C@@H](CC(C)C)C(=O)N[C@@H](CC(N)=O)C(=O)N[C@@H](CCCNC(=N)N)C(=O)N[C@@H](CC(C)C)C(=O)N[C@@H](CCCCC)C(=O)N2CCC[C@H]2C(=O)N[C@@H](C(C)C)C(=O)N[C@@H](Cc2c[nH]c3ccccc23)C(=O)N[C@H](C(=O)NCC(=O)O)CSCC(=O)N[C@@H](Cc2ccccc2)C(=O)N[C@@H](Cc2ccc(O)cc2)C(=O)N[C@@H](CC(=O)O)C1=O [Example 1068] ({CH2CO}-FYD[NHexGly]YLNRL[Ahp(2)]PVWCG-OH; thioether N-14) | 39.4 | – |
